Assay results as given in patent publication US8507677B2, “Fluorescent probe” (The University of Tokyo, priority 2007, dated 2013).

Test: pKa values of pH probes (control of pKa by changing structure)
Format: physicochemical
Details: pH probe
Excerpt: By using the pH probe described in the present invention, change of pH can be detected in a range including pKa of the compound according to the fluorescence ratio method or the absorbance ratio method. Compounds 1 to 5 have different pKa values, and accordingly, pH ranges suitable for the detection are different among them. Therefore, a pH probe suitable for a pH range desired to be detected can be chosen and used by utilizing the difference. Similarly, by suitably choosing R^3, R^4 and/or R^5 in the general formula (I), or R^13, R^14 and/or R^15 in the general formula (IA), a pH probe having a desired pKa and thus suitable for measurement of a desired pH range can be designed and provided.

Row | pKa | Compound
1 | 8.1 | CN(C)CCN(C)C1=C(/C=C/C2=[N+](C)c3ccccc3C2(C)C)CCC/C1=C\C=C1\N(C)c2ccccc2C1(C)C [Compound 2]
2 | 8.7 | CCN(CC)CCN(C)C1=C(/C=C/C2=[N+](C)c3ccccc3C2(C)C)CCC/C1=C\C=C1\N(C)c2ccccc2C1(C)C [Compound 3]

More lines, now with the values behind:

Row | Compound | pKa
3 | CN1/C(=C/C=C2\CCCC(/C=C/C3=[N+](C)c4ccccc4C3(C)C)=C2N2CCN(Cc3ccccc3)CC2)C(C)(C)c2ccccc21 [Compound 1] | 5.5
4 | CN1CCN(C2=C(/C=C/C3=[N+](C)c4ccccc4C3(C)C)CCC/C2=C\C=C2\N(C)c3ccccc3C2(C)C)CC1 [Compound 4] | 6.8
5 | CN1/C(=C/C=C2\CCCC(/C=C/C3=[N+](C)c4ccccc4C3(C)C)=C2N2CCN(c3ccccc3)CC2)C(C)(C)c2ccccc21 [Compound 5] | 2.1
